The results in this text go back to PMC5823845 (Bioorganic & Medicinal Chemistry, 2018).

Data set [1] concerns the target T1, human RXR β (Homo sapiens, UniProt P28702).
T1 construct: Panlabs Eurofins Pharma Discovery Services (CRO)
T1 sequence (P28702 1-533): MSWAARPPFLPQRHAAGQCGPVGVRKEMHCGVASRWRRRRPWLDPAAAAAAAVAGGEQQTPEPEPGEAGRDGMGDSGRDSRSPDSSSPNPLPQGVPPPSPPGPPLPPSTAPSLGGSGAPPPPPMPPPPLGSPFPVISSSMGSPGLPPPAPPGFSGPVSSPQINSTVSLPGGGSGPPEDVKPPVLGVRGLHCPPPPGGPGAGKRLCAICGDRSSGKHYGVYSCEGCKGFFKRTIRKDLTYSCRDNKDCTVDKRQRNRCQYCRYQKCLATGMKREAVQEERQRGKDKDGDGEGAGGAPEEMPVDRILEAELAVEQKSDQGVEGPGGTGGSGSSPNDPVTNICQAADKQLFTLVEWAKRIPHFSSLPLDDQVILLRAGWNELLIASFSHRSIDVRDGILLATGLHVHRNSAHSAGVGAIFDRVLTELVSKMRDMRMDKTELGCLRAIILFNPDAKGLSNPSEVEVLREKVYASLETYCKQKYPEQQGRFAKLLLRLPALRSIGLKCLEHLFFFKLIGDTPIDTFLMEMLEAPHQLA
As to the kind of experiment: Retinoid X Receptor radioligand binding assay, [3H] 9-cis-retinoic acid. Particulars: human recombinant receptor. As for the experimental part:
[22] The Retinoid X Receptor RXRα and RXRβ radioligand binding assays using [^3H] 9-cis-retinoic acid and the respective human recombinant receptors, were carried out by the CRO Panlabs Eurofins Pharma Discovery Services UK Limited, Gemini Crescent, Dundee Technology Park, Dundee, DD2 1SW.

The nature of data set [2]: Stability and intrinsic clearance in cryopreserved hepatocytes. Particulars: dog.
Protocol: Reactions were terminated by addition of 100 μL of acetonitrile containing carbamazepine as the analytical internal standard. Samples were centrifuged and the supernatant fractions analysed by LC-MS/MS. The instrument responses (peak heights) were referenced to the zero time-point samples (as 100%) in order to determine the percentage of compound remaining. Ln plots of the % remaining, for each compound, were used to determine the half-life for the hepatocyte incubations.
Data set [3] deals with CHO-K1 cells. As to the kind of experiment: In vitro micronucleus test. In kind it is cell-based. Particulars: presence and absence of S9. From the text:
Fluorescent imaging was used to obtain the results in the micronucleus test.

A short description of data set [4]: PK studies in rats. In kind it is in vivo, Sprague-Dawley rats. The protocol:
The Test Items were orally administered at a dose of 10 mg/kg and a dosing volume of 10 mL/kg. […] The Test Items were intravenously administered at a dose of 0.5 mg/kg and a dosing volume of 2 mL/kg. […] Whole blood concentrations of the Test Items were measured using LC-MS/MS and selected pharmacokinetic parameters calculated using Pharsight WinNonLin software. For furthers details see Supplementary data file.

The conditions of data set [5]: Beagle dogs, n = 3.
Protocol: intravenous (bolus) injection at a dose level of 0.2 mg/kg. […] Intravenous doses were administered by bolus injection into a cephalic vein at a dose volume of 1 mL/kg. Oral doses were administered by gastric intubation at a dose volume of 5 mL/kg. […] Pharmacokinetic parameters were calculated using the computer program Phoenix WinNonlin version 6.3 (Pharsight Corporation, USA).

Each structure is given as a SMILES string.

Take `CCOc1c(Cl)cc(C(=O)Nc2ccc(C(=O)O)c(C)c2)cc1OC(C)C` [Compound 56, 4-(3-Chloro-4-ethoxy-5-isopropoxybenzamido)-2-methylbenzoic acid]: the IC50 in data set [1] is greater than 10 µM. In data set [2], this molecule displayed a half-life at 1 μM greater than 7.5 h, a half-life at 30 μM greater than 7.5 h, a hepatocyte CLint at 1 μM of less than 3 µL/min/1e6 cells and a hepatocyte CLint at 30 μM of less than 3 µL/min/1e6 cells. Also, the “in vitro micronucleus test” value in data set [3] is “negative”. The “rat pK AUC po” value in data set [4] (10 mg/kg po, 8% Ethanol/92% PEG-400, n = 4) is given as 70,765 ng·min mL^−1. For the same molecule, the “rat pK Cl” value in data set [4] (iv 0.5 mg/kg, n = 4) came to 7 mL/kg/min. Also, the bioavailability in data set [4] (male, Sprague-Dawley, whole blood, rat, 10 mg/kg po vs 0.5 mg/kg iv, n = 4, read-out: rat pK F%) was determined as 40%. For the same molecule, in data set [5] (0.5 mg/kg iv, 1 mg/kg po), the “po F” value came to 83%. In addition, in data set [5] (0.5 mg/kg iv), the “iv t1/2” value was 9.2 h. Besides, in data set [5] (1 mg/kg po), the “po Cmax” value turned out to be 2050 ng/mL and the “po Tmax” value amounted to 0.5 h.

As a reminder, the IC50 is the point on the concentration scale where inhibition reaches its midpoint. In general, half-life refers to how long it takes for the measured level to halve. A high value points to slow loss. As a reminder, the hepatocyte CLint is the rate of metabolic loss divided by the concentration. A low value points to slow turnover.
